Results published in ChEMBL document CHEMBL5584244, “Discovery of novel pyrrolo[2,1-c][1,4]benzodiazepine-3,11-dione (PBD) derivatives as selective HDAC6 inhibitors for the efficient treatment of idiopathic pulmonary fibrosis (IPF) in vitro and in vivo” (Eur J Med Chem, 2024).
Activity calls are given as the source filed them. No cut-off for these calls is given here.

Assays:
Histone deacetylase 7 = target: T1, Histone deacetylase 7 (Homo sapiens, UniProt Q8WUI4); assay: Inhibition of N-terminal GST-tagged recombinant human HDAC7 (518 to end residues) expressed in baculovirus expression system using Boc-Lys (Tfa)-AMC as substrate incubated for 120 mins by fluorescence analysis
T1 sequence (Q8WUI4 whole entry): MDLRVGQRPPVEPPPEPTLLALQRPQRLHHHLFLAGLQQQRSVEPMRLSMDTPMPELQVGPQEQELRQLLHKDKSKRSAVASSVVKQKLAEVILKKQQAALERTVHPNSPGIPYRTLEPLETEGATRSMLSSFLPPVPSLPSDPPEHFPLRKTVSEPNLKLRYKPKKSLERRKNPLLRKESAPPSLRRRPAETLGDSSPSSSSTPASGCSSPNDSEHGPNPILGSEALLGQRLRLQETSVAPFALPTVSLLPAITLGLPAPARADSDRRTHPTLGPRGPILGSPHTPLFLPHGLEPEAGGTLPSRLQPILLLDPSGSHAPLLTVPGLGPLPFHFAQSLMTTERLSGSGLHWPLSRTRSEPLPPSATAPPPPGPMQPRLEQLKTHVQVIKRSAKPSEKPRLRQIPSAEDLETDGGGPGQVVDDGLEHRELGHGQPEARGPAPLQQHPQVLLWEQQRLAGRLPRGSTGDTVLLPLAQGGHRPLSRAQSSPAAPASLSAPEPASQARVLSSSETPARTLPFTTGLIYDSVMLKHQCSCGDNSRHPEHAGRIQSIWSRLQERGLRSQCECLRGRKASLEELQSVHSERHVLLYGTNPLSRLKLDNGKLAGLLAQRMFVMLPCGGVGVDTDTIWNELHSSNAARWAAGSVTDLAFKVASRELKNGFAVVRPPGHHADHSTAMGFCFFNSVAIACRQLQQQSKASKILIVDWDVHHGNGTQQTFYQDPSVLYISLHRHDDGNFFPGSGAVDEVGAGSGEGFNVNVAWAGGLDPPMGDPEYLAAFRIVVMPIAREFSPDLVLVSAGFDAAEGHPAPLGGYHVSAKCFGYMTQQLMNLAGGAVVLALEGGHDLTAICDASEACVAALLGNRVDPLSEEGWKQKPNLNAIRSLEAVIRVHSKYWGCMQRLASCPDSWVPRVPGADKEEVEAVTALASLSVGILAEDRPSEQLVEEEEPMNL

[1] = target: T2, Protein deacetylase HDAC6 (Homo sapiens) (UniProt Q9UBN7); assay: Inhibition of HDAC6 in TGF-beta1-induced HELF cells assessed as upregulation of acetylated alpha-tubulin level by Western blot analysis; assay type: cell-based; conditions: dose 2.5-10 µM
T2 sequence (whole entry): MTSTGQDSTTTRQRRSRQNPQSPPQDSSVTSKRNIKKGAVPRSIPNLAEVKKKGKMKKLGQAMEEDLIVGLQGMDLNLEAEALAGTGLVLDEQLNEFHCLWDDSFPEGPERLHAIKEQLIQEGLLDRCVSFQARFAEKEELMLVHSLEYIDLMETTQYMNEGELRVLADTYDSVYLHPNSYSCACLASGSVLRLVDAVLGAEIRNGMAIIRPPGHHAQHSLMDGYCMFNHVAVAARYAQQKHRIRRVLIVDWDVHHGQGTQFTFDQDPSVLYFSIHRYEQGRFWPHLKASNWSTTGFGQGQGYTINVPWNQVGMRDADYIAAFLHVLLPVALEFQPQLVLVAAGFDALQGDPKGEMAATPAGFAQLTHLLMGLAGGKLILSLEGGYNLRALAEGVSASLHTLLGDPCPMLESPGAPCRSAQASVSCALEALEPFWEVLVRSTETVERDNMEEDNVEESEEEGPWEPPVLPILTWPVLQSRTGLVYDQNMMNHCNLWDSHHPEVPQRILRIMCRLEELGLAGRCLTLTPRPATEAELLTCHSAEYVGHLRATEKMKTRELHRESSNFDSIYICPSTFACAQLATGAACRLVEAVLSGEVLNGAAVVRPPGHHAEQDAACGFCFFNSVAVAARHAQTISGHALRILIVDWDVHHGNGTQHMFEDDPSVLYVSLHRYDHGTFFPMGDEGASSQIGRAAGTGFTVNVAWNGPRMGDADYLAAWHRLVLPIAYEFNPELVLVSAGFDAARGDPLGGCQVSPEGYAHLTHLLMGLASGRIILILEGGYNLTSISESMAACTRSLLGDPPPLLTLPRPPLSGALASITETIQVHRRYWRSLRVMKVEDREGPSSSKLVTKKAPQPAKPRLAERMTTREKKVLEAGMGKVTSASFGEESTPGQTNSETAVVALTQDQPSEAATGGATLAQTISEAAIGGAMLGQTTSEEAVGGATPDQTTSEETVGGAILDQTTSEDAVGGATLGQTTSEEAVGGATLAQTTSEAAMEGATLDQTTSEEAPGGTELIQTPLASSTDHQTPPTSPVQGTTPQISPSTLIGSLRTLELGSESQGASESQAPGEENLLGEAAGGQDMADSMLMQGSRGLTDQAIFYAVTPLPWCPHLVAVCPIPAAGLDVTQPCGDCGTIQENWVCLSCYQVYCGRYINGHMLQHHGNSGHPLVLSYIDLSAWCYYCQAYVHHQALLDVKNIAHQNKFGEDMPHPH

Mus musculus [2] = assay: Anti-pulmonary fibrosis activity in bleomycin-induced C57BL/6 mouse model of pulmonary fibrosis assessed as decrease in inflammatory cell infiltration in lung at 50 to 100 mg/kg, ip for 3 weeks by H and E staining based fluorescence microscopic analysis; assay type: functional, organism-based; conditions: dose 50-100 mg/kg
Mus musculus [3] = assay: Anti-pulmonary fibrosis activity in bleomycin-induced ip dosed C57BL/6 mouse model of pulmonary fibrosis assessed as inhibition of Smad2 protein phosphorylation level in lung for 3 weeks by immunohistochemical analysis; assay type: functional, organism-based; conditions: dose 50-100 mg/kg

For CC(=O)O.O=C(NO)c1ccc(CN2C(=O)[C@@H]3CCCN3Cc3ccccc32)cc1, the IC50 (Histone deacetylase 7) was 8.94 nM, the inhibition [1] was “Dose-Dependent Effect” and the Activity (Mus musculus [2]) was “Active”. The inhibition (Mus musculus [3]) was “Dose-Dependent Effect”.
